According to BindingDB's records for doi:10.1021/jm010216r (Academia Sinica, 2001):
pKi: −log10 of the molar value.

Assay: Inhibitory activity against PRPP synthetase

Question: With `Nc1ncnc2ncn(CCOCP(=O)(O)O)c12` [[2-(6-Amino-purin-7-yl)-ethoxymethyl]-phosphonic acid] as the molecule, how does the pKi read?
Answer: 1.77
